This data set can be described thus: Stability of FDC dosage forms (in words). Conditions: after 6 months storage at accelerated conditions; effect seems concentration dependent. The format is physicochemical.

As for `N=C(N)NCCC[C@H](N)C(=O)O` [L-arginine], the “suppression of degradation of BI 1356 free base in FDC combinations with metformin HCl” value is “able to suppress degradation”.

(Values after patent US20230338386A1, “DPP-IV INHIBITOR COMBINED WITH A FURTHER ANTIDIABETIC AGENT, TABLETS COMPRISING SUCH FORMULATIONS, THEIR USE AND PROCESS FOR THEIR PREPARATION” (Boehringer Ingelheim International GmbH, priority 2008, published 2023).)
